Measurements as given in US8088804B2, “N-hydroxyamide derivatives possessing antibacterial activity” (Pfizer Inc., priority 2005, dated 2012).
≈ marks a conversion by molar mass, not a printed value.

Key:
E. coli (2) = assay: Susceptibility testing (MIC, CLSI microdilution); format: cell-based, Escherichia coli; settings: 20 h at 35° C., in µg/mL (unit assumed)
Description: (§1) Compounds were tested following the microdilution method of CLSI (Clinical and Laboratory Standards Institute. Methods for dilution antimicrobial susceptibility tests for bacteria that grow aerobically; Approved standard—sixth edition. CLSI document M7-A5, CLSI, Wayne, Pa. 2003). Assays were performed in sterile plastic 96-well microtiter trays with round bottom wells (Greiner).
(§2) Stock solutions of test compounds and control antibiotics were prepared at 10 mg/ml in DMSO. Serial 2-fold dilutions of each drug were performed in a microtiter plate across each row using DMSO as solvent at 100-fold the desired final concentration. Wells in columns #1-11 contain drug and column #12 was kept as a growth control for the organism with no drug. Each well in the mother plate was diluted with sterile deionized water and DMSO, mixed, and volumes of 10 μl distributed to each well in the resulting assay plates.
(§3) Stock cultures were prepared using the Microbank™ method (Pro-Lab Diagnostics) and stored at −80° C. To propagate each strain, one bead was removed from the frozen vial and aseptically streaked onto Trypticase Soy Agar (Difco) which were incubated at 35° C. Standardized inocula were prepared using the direct colony suspension method according to CLSI guidelines (Clinical and Laboratory Standards Institute. Methods for dilution antimicrobial susceptibility tests for bacteria that grow aerobically; Approved standard—sixth edition. CLSI document M7-A5, CLSI, Wayne, Pa., 2003). Isolated colonies were selected from an 18-24 hr agar plate and resuspended in 0.9% sterile saline to match a 0.5 McFarland turbidity standard using a calorimeter (Vitek) at 80% of transmitance. The suspension was used within 15 minutes of preparation.
(§4) Mueller-Hinton Broth (MHB) (Difco) was prepared at a 1.1× concentration and supplemented with Ca++ and Mg++ as recommended by CLSI. For each organism, the standardized suspension was diluted 1:180 into appropriate growth medium in a sterile reservoir. After mixing, wells in the drug-containing assay plates were inoculated with a volume of 90 μl. Thus, for each minimum inhibitory concentration (MIC) determination, each well contains a final volume of 100 μl with an inoculum size of approximately 5×10^5 colony forming units (cfu)/ml and no more than 1% DMSO.
(§5) The completed microtiter plates were incubated 20 h at 35° C. in ambient air. Optical density of each well was determined at 600 nm using a VersaMax Microplate reader (Molecular Devices, Sunnyvale, Calif.). The MIC was defined as the lowest drug concentration causing complete suppression of visible bacterial growth.

E. coli tolC = assay: Susceptibility testing (MIC, CLSI microdilution); format: cell-based, Escherichia coli; settings: 20 h at 35° C., unit assumed
Description: as §1, §2, §3, §4, §5

P. ae LpxC enzyme = P. ae LpxC enzyme (Pseudomonas aeruginosa, UniProt P47205); assay: Enzyme inhibition testing (fluorescamine assay); format: biochemical; settings: read-out: ENZYME (percent inhibition); for inhibition at 0.5 µg/mL: @0.5 μg/ml; for inhibition at 10 µg/mL: @10 μg/ml
P. ae LpxC enzyme, sequence (P47205 whole entry): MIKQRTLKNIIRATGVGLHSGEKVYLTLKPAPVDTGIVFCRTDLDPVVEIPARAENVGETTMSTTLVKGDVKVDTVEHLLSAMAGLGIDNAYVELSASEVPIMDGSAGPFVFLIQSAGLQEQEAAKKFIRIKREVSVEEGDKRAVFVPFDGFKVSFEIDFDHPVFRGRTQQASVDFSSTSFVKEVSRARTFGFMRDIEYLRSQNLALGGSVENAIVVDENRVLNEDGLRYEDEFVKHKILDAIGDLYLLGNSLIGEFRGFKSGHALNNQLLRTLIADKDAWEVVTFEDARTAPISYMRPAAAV
Description: Compounds were tested based on a published method (Wang W., 2001, Anal Biochem, 290, 338-46) with modifications. Enzyme assays were performed in the assay buffer (50 mM HEPES, pH8, 0.005% Brij, 50 μM ZnSO4, 1 mg/ml BSA) in 96-well V-bottom microtiter plates.
Stock solutions of test compounds and control antibiotics are prepared at 10 mg/ml in DMSO and are diluted in the assay buffer to 6-fold the final testing concentration. 5 μl compound dilution is distributed to the well of the assay plate. EDTA is used as positive control and the final concentration in assay is 12.5 mM.
P. ae LpxC enzyme dilution in the assay buffer is added to the compound in plate and pre-incubated with the compound at room temperature for 10 min. LpxC substrate is added to initiate the enzyme reaction and the final enzyme and substrate concentrations are 1.2 μM and 0.4 mM, respectively. The reaction continues at RT for 4 hrs before diluted with 45 μl of Borate buffer (0.4 M, pH9), followed by addition of 40 μl derivatization reagent (fluorescamine 2 mg/ml DMF). This mixture is incubated at RT for 10 min followed by addition of 150 μl DMF/H2O (1:1). The resulting solution is loaded onto Millipore filter unit (Microcon 10 k MWCO) and spun at 13 k rpm on bench top centrifuge for 15 min. 100 μl of this filtrate is transferred to a low fluorescence clear-bottom 96-well plate (Corning) and the fluorescence is detected at ex360 nm and em465 nm on a Tecan fluorescence plate reader. The percent inhibition is calculated based on EDTA produces 100% inhibition and negative control produces 100% activity.

P. aerug. (2) = assay: Susceptibility testing (MIC, CLSI microdilution); format: cell-based, Pseudomonas aeruginosa; settings: 20 h at 35° C., in µg/mL (unit assumed)
Description: as §1, §2, §3, §4, §5

P. aerug. Hypersuc = assay: Susceptibility testing (MIC, CLSI microdilution); format: cell-based, Pseudomonas aeruginosa; settings: 20 h at 35° C., Δ efflux, hypersusceptible strain, unit assumed
Description: as §1, §2, §3, §4, §5

K. pneu. = assay: Susceptibility testing (MIC, CLSI microdilution); format: cell-based, Klebsiella pneumoniae; settings: 20 h at 35° C., unit assumed
Description: as §1, §2, §3, §4, §5

H. influen. = assay: Susceptibility testing (MIC, CLSI microdilution); format: cell-based, Haemophilus influenzae; settings: 20 h at 35° C., unit assumed
Description: as §1, §2, §3, §4, §5

Row | Structure (SMILES) | MIC E. coli (2) (E. coli (2)) | MIC E. coli tolC (E. coli tolC) [µg/mL] | inhibition at 0.5 µg/mL (P. ae LpxC enzyme) [%] | MIC P. aerug. (2) (P. aerug. (2)) | MIC P. aerug. Hypersuc (P. aerug. Hypersuc) [µg/mL] | MIC K. pneu. (K. pneu.) [µg/mL] | MIC H. influen. (H. influen.) [µg/mL] | inhibition at 10 µg/mL (P. ae LpxC enzyme) [%] | inhibition at 1 µg/mL (P. ae LpxC enzyme; @1 μg/ml) [%]
1 | CCCc1ccc(-c2ccc(C(=O)N3CC[C@H](NC=O)[C@H]3C(=O)NO)cc2)cc1 [Compound 4, (2S,3S)-3-Formamido-N-hydroxy-1-(4′-propylbiphenylcarbonyl)pyrrolidine-2-carboxamide] | >64 | 32 (≈ 80.9 µM) | 69 | >64 | 64 (≈ 162 µM) | > 64 | > 64 | – | –
2 | CCCc1ccc(-c2ccc(C(=O)N3CC[C@H](NC)[C@H]3C(=O)NO)cc2)cc1 [Compound 5] | 64 | 32 (≈ 83.9 µM) | 29 | >64 | 64 (≈ 168 µM) | > 64 | 32 (≈ 83.9 µM) | – | –
3 | CCCc1ccc(-c2ccc(C(=O)N3CC[C@H](F)[C@H]3C(=O)NO)cc2)cc1 [Compound 6] | >64 | 16 (≈ 43.2 µM) | 87 | >64 | 32 (≈ 86.4 µM) | 32 (≈ 86.4 µM) | > 64 | – | –
4 | CCCc1ccc(-c2ccc(C(=O)N3CC[C@@H](OC)[C@H]3C(=O)NO)cc2)cc1 [Compound 8] | >64 | 32 (≈ 83.7 µM) | – | >64 | > 64 | > 64 | 64 (≈ 167 µM) | 21 | –
5 | CCCc1ccc(-c2ccc(C(=O)N3C[C@@](O)(COC)C[C@H]3C(=O)NO)cc2)cc1 [Compound 9, (2S,4R)-N,4-Dihydroxy-4-(methoxymethyl)-1-(4′-propylbiphenylcarbonyl)pyrrolidine-2-carboxamide] | >64 | > 64 | – | >64 | 32 (≈ 77.6 µM) | > 64 | > 64 | – | 57
6 | CCCc1ccc(-c2ccc(C(=O)N3C[C@H](O)[C@H](O)[C@H]3C(=O)NO)cc2)cc1 [Compound 10] | >64 | 64 (≈ 166 µM) | 60 | >64 | 64 (≈ 166 µM) | > 64 | > 64 | – | –
7 | CCCc1ccc(-c2ccc(C(=O)N3C[C@@H](N)[C@H](O)[C@H]3C(=O)NO)cc2)cc1 [Compound 11, (2S,3S,4R)-4-Amino-N,3-dihydroxy-1-(4′-propylbiphenylcarbonyl)pyrrolidine-2-carboxamide] | >64 | 32 (≈ 83.5 µM) | 84 | 64 | 16 (≈ 41.7 µM) | > 64 | 32 (≈ 83.5 µM) | – | –
8 | CCCc1ccc(-c2ccc(C(=O)N3CCS[C@H]3C(=O)NO)cc2)cc1 [Compound 13] | >64 | > 64 | – | 64 | 16 (≈ 43.2 µM) | 32 (≈ 86.4 µM) | 64 (≈ 173 µM) | 71 | –
